From ChEMBL document CHEMBL3817822, “Design and synthesis of pyridine-pyrazole-sulfonate derivatives as potential anti-HBV agents” (Medchemcomm, 2016)
Each block holds one compound with its values, some of them ahead of it.

Assays:
[1] = Cytotoxicity against human HepG2(2.2.15) cells assessed as reduction in cell viability after 72 hrs by MTS assay; type: cell-based; conditions: for CC50 at 72 h: HepG2(2.2.15) cells, read-out: TC50; for Activity: hepg2 2.2.15, 72 h
Hepatitis B virus [2] = assay: Antiviral activity against HBV infected in human HepG2(2.2.15) cells assessed as inhibition of HBsAg secretion by enzyme immunoassay; type: functional, organism-based
[3] = Selectivity index, ratio of TC50 for human HepG2(2.2.15) cells to IC50 for HBV infected in human HepG2(2.2.15) cells assessed as inhibition of HBsAg secretion
Hepatitis B virus [4] = assay: Antiviral activity against HBV infected in human HepG2(2.2.15) cells assessed as inhibition of HBeAg secretion by enzyme immunoassay; type: functional, organism-based
[5] = Selectivity index, ratio of TC50 for human HepG2(2.2.15) cells to IC50 for HBV infected in human HepG2(2.2.15) cells assessed as inhibition of HBeAg secretion
Hepatitis B virus [6] = assay: Antiviral activity against HBV infected in human HepG2(2.2.15) cells assessed as inhibition of viral DNA replication after 48 hrs by SYBR Green based RT-PCR method; type: functional, organism-based; conditions: HepG2 2.2.15, 48 h
[7] = Selectivity index, ratio of TC50 for human HepG2(2.2.15) cells to IC50 for HBV infected in human HepG2(2.2.15) cells assessed as inhibition of viral DNA replication

Compound: CS(=O)(=O)Oc1cc(CSc2ccccn2)[nH]n1
CC50 at 72 h [1]: 830 µM
Activity [1]: Dose-dependent effect
IC50 (Hepatitis B virus [2]): 161 µM
Selectivity Index [3]: 5.17
IC50 (Hepatitis B virus [4]): 679 µM
Selectivity Index [5]: 1.22
IC50 (Hepatitis B virus [6]): 739 µM
Selectivity Index [7]: 1.12

Compound: Nc1ccn([C@H]2CS[C@@H](CO)O2)c(=O)n1
CC50 at 72 h [1]: 352 µM
IC50 (Hepatitis B virus [6]): 2.09 µM

Compound: O=c1cc(-c2ccccn2)[nH][nH]1
CC50 at 72 h [1]: 1060 µM
Activity [1]: Dose-dependent effect
IC50 (Hepatitis B virus [2]): 1380 µM
Selectivity Index [3]: 0.77
IC50 (Hepatitis B virus [4]): 1370 µM
Selectivity Index [5]: 0.78
IC50 (Hepatitis B virus [6]): 1350 µM
Selectivity Index [7]: 0.79

Compound: Cc1ccc(S(=O)(=O)Oc2cc(CSc3ccccn3)[nH]n2)cc1
CC50 at 72 h [1]: 86.4 µM
Activity [1]: Dose-dependent effect
IC50 (Hepatitis B virus [2]): 19.8 µM
Selectivity Index [3]: 4.36
IC50 (Hepatitis B virus [4]): 19.4 µM
Selectivity Index [5]: 4.45
IC50 (Hepatitis B virus [6]): 14.3 µM
Selectivity Index [7]: 6.04

Compound: COc1ccc(S(=O)(=O)Oc2cc(-c3ccccn3)[nH]n2)cc1
CC50 at 72 h [1]: 87.5 µM
Activity [1]: Dose-dependent effect
IC50 (Hepatitis B virus [2]): 15.4 µM
Selectivity Index [3]: 5.69
IC50 (Hepatitis B virus [4]): 23.1 µM
Selectivity Index [5]: 3.79
IC50 (Hepatitis B virus [6]): 22.2 µM
Selectivity Index [7]: 3.95

Compound: O=[N+]([O-])c1ccc(S(=O)(=O)Oc2cc(-c3ccccn3)[nH]n2)cc1
CC50 at 72 h [1]: 787 µM
Activity [1]: Dose-dependent effect
IC50 (Hepatitis B virus [2]): 125 µM
Selectivity Index [3]: 6.28

Compound: COc1ccc(S(=O)(=O)Oc2cc(CSc3ccccn3)[nH]n2)cc1
CC50 at 72 h [1]: 90.2 µM
Activity [1]: Dose-dependent effect
IC50 (Hepatitis B virus [2]): 14.5 µM
Selectivity Index [3]: 6.21
IC50 (Hepatitis B virus [4]): 44.6 µM
Selectivity Index [5]: 2.02
IC50 (Hepatitis B virus [6]): 38.1 µM
Selectivity Index [7]: 2.37

Compound: Cc1ccc(S(=O)(=O)Oc2cc(-c3ccccn3)[nH]n2)cc1
CC50 at 72 h [1]: 217 µM
Activity [1]: Dose-dependent effect
IC50 (Hepatitis B virus [2]): 23.2 µM
Selectivity Index [3]: 9.35
IC50 (Hepatitis B virus [4]): 32.3 µM
Selectivity Index [5]: 6.71
IC50 (Hepatitis B virus [6]): 31.3 µM
Selectivity Index [7]: 6.92

Compound: O=[N+]([O-])c1ccccc1S(=O)(=O)Oc1cc(CSc2ccccn2)[nH]n1
CC50 at 72 h [1]: 66.2 µM
Activity [1]: Dose-dependent effect
IC50 (Hepatitis B virus [2]): 6.25 µM
Selectivity Index [3]: 10.6
IC50 (Hepatitis B virus [4]): 9.92 µM
Selectivity Index [5]: 6.68
IC50 (Hepatitis B virus [6]): 6.3 µM
Selectivity Index [7]: 10.51

Compound: O=S(=O)(Oc1cc(CSc2ccccn2)[nH]n1)c1ccccc1
CC50 at 72 h [1]: 103 µM
Activity [1]: Dose-dependent effect
IC50 (Hepatitis B virus [2]): 152 µM
Selectivity Index [3]: 0.68
IC50 (Hepatitis B virus [4]): 20.3 µM
Selectivity Index [5]: 5.09
IC50 (Hepatitis B virus [6]): 18.9 µM
Selectivity Index [7]: 5.46

Compound: O=S(=O)(Oc1cc(-c2ccccn2)[nH]n1)c1ccc(F)cc1
CC50 at 72 h [1]: 254 µM
Activity [1]: Dose-dependent effect
IC50 (Hepatitis B virus [2]): 45.9 µM
Selectivity Index [3]: 5.53
IC50 (Hepatitis B virus [4]): 82.9 µM
Selectivity Index [5]: 3.06
IC50 (Hepatitis B virus [6]): 92.1 µM
Selectivity Index [7]: 2.76

Compound: O=S(=O)(Oc1cc(CSc2ccccn2)[nH]n1)c1ccc(Br)cc1
CC50 at 72 h [1]: 52.4 µM
Activity [1]: Dose-dependent effect
IC50 (Hepatitis B virus [2]): 115 µM
Selectivity Index [3]: 0.46
IC50 (Hepatitis B virus [4]): 9.2 µM
Selectivity Index [5]: 5.69
IC50 (Hepatitis B virus [6]): 6.07 µM
Selectivity Index [7]: 8.63

More lines, in order of falling IC50 (Hepatitis B virus [2]), values ahead:

IC50 (Hepatitis B virus [2]): 815 µM
IC50 (Hepatitis B virus [4]): 590 µM
IC50 (Hepatitis B virus [6]): 524 µM
Compound: O=c1cc(CSc2ccccn2)[nH][nH]1
CC50 at 72 h [1]: 1120 µM
Activity [1]: Dose-dependent effect
Selectivity Index [3]: 1.37
Selectivity Index [5]: 1.89
Selectivity Index [7]: 2.13

IC50 (Hepatitis B virus [2]): 287 µM
Compound: CS(=O)(=O)Oc1cc(-c2ccccn2)[nH]n1
CC50 at 72 h [1]: 1060 µM
Activity [1]: Dose-dependent effect
Selectivity Index [3]: 3.68

IC50 (Hepatitis B virus [2]): 210 µM
Compound: O=S(=O)(Oc1cc(-c2ccccn2)[nH]n1)c1ccc(Br)cc1
CC50 at 72 h [1]: 809 µM
Activity [1]: Dose-dependent effect
Selectivity Index [3]: 3.85

IC50 (Hepatitis B virus [2]): 137 µM
IC50 (Hepatitis B virus [4]): 69.5 µM
IC50 (Hepatitis B virus [6]): 65.3 µM
Compound: O=S(=O)(Oc1cc(-c2ccccn2)[nH]n1)c1ccccc1
CC50 at 72 h [1]: 135 µM
Activity [1]: Dose-dependent effect
Selectivity Index [3]: 0.99
Selectivity Index [5]: 1.94
Selectivity Index [7]: 2.07

IC50 (Hepatitis B virus [2]): 26.2 µM
IC50 (Hepatitis B virus [4]): 250 µM
IC50 (Hepatitis B virus [6]): 197 µM
Compound: O=S(=O)(Oc1cc(CSc2ccccn2)[nH]n1)c1ccc(F)cc1
CC50 at 72 h [1]: 116 µM
Activity [1]: Dose-dependent effect
Selectivity Index [3]: 4.44
Selectivity Index [5]: 0.46
Selectivity Index [7]: 0.59

IC50 (Hepatitis B virus [2]): 7.48 µM
IC50 (Hepatitis B virus [4]): 12 µM
IC50 (Hepatitis B virus [6]): 9.19 µM
Compound: O=[N+]([O-])c1ccccc1S(=O)(=O)Oc1cc(-c2ccccn2)[nH]n1
CC50 at 72 h [1]: 326 µM
Activity [1]: Dose-dependent effect
Selectivity Index [3]: 43.54
Selectivity Index [5]: 27.11
Selectivity Index [7]: 35.46

IC50 (Hepatitis B virus [2]): 4.8 µM
IC50 (Hepatitis B virus [4]): 5.97 µM
IC50 (Hepatitis B virus [6]): 5.56 µM
Compound: O=[N+]([O-])c1ccc(S(=O)(=O)Oc2cc(CSc3ccccn3)[nH]n2)cc1
CC50 at 72 h [1]: 38.2 µM
Activity [1]: Dose-dependent effect
Selectivity Index [3]: 7.97
Selectivity Index [5]: 6.41
Selectivity Index [7]: 6.88
